# Experimental data as given in patent US20230348988A1, “DNA Damage Repair Deficit in Cancer Cells” (THE REGENTS OF THE UNIVERSITY OF CALIFORNIA, priority 2020, published 2023).
# Experiments:
# Assay type in all cases: cell-based
# SAS cells [1] = test: Pulsed-field gel electrophoresis of residual DSB after irradiation
# Protocol: Next it was sought to test whether TGFβ inhibition would increase alt-EJ in the context of NHEJ inhibition. Here pulsed-field gel electrophoresis was used to measure residual DSB levels in SAS cells at various timepoints after irradiation (20 Gy). NHEJ was blocked by treating cells with the DNA-protein kinase inhibitor KU57788 1 hour before irradiation and TGFβ signaling was blocked 24 hours beforehand with LY36494 pretreatment.
# SAS cells [2] = test: NANOSTRING DDR gene panel expression in SAS cells; details: 24 h, TGFβ plus or minus inhibitor
# Protocol: TGFβ regulates expression of DDR genes. To further investigate TGFβ impact on DDR, the expression of DNA repair-associated genes was evaluated using the NANOSTRING™ DDR gene panel. […] According to KEGG pathway analyses, expression of genes implicated in HR and NHEJ was increased by TGFβ and reduced by its inhibition. […] BRCA1 expression was increased by TGFβ and suppressed by LY2157299, as was ABL1 and POLD4. In contrast, TGFβ decreased and LY2157299 inhibition increased expression of LIG1, PARP1, and POLQ, which are key genes involved in alt-EJ.
# (§1) Gene expression analyses methods: Total RNA was extracted. Sample RNA (250 ng) was used for the NANOSTRING™ DNA Damage Repair Gene Expression panel, consisting of 180 DDR genes and 12 housekeeping genes for normalization, according to manufacturer's instructions. Hybridization efficiency and background signals were evaluated based on internal positive and negative control probes analyzed using manufacturer's software. Ratio data from 2-3 biological repeats were used for further analysis and graphs.
# U251 human GBM cell line = test: Quantitative expression assays of alt-EJ genes in U251 cells; details: time course, TGFβ signaling blockade with LY2157299
# Excerpt: The above observations led to the hypothesis that TGFβ suppression of alt-EJ gene expression is a distinct mechanism that influences differential DNA repair pathway use. To test whether this biology is broadly employed beyond HNSC, glioblastoma (GBM) was considered because high TGFβ ligand and receptor expression correlate with poorer survival, and because TGFβ inhibition enhances radiosensitivity in GBM cell lines and primary tumor explants. First, the U251 human GBM cell line was investigated using the NANOSTRING™ panel. As observed in HNSC SAS cells, TGFβ inhibition increased expression of the key alt-EJ genes, LIG1, PARP1, and POLQ in GBM cells. […] U251 reporters (EJ2GFP) were established to evaluate alt-EJ repair.
# as §1
compound,measurement,setting,value
O=c1cc(N2CCOCC2)oc2c(-c3cccc4c3sc3ccccc34)cccc12 [KU57788],repair of radiation induced DSB,SAS cells [1]; KU57788 1 hour before irradiation (20 Gy),significantly inhibited
Cc1cccc(-c2nn3c(c2-c2ccnc4ccc(C(N)=O)cc24)CCC3)n1 [LY2157299],BRCA1 expression (as was ABL1 and POLD4),SAS cells [2],suppressed
same,TGFβ induction of CDKNJA,SAS cells [2],blocked
same,"expression of LIG1, PARP1, and POLQ",SAS cells [2],increased
same,"expression of LIG1, PARP1, and POLQ",U251 human GBM cell line,increased
c1ccc(-c2[nH]ncc2-c2ccnc3ccccc23)nc1 [LY36494],rescue of KU57788-inhibited repair of radiation induced DSB,"SAS cells [1]; LY36494 pretreatment 24 hours beforehand, with KU57788, 20 Gy",partially rescued
